From patent US8299085B2, “Quinazoline derivatives” (Novartis AG, priority 2004, dated 2012) come the findings set out here.

For experiment [1], the system named is Wistar Kyoto rats. In words: Test 1: NMDA-antagonist induced locomotion. The following applies: 10 mg/kg s.c. It counts as in vivo, rat. As to the method:
Male Wistar Kyoto rats (Iffa Crédo, Lyon, France) weighing between 250 and 310 g are used. In principle 4 treatment groups are formed: 1) the compound (doses 1, 3 or 10 mg/kg) followed by the competitive NMDA receptor antagonist (S)-2-amino-3-(2′-chloro-5-phosphonomethyl-biphenyl-3-yl)-propionic acid, hereinafter SDZ 220-581 (10 mg/kg), 2) solvent-pretreatment followed by SDZ 220-581 (10 mg/kg), 3) solvent followed by solvent, 4) the compound (1, 3, 10 mg/kg) followed by solvent. Rats are randomly allocated to these pretreatment groups (n=10/dose group). Drugs are administered subcutaneous (s.c.), 15 min prior to SDZ 220-581. Immediately after the animals received SDZ 220-581, they are placed into the activity monitor for a period of 60 min. Locomotor activity is analysed over the initial 30 minutes.
Locomotion is recorded with a videotracking system (VideoMot2, TSE Technical and Scientific Equipment GmbH, Bad Hombourg, Germany), using a closed circuit digital videocamera (WV-BP.330/GE, Panasonic, Osaka, Japan). The video-signal from the camera is digitized and used for data analysis. […] The camera is placed such, that four animals (one per arena) can be recorded simultaneously.

Experiment [2] concerns Wistar Kyoto rats. In words: Test 2: NMDA-channel blocker induced head swaying and circling. It counts as in vivo, rat. Particulars: 10 mg/kg s.c., alone. On the procedure: Adult male Wistar Kyoto rats (340-380 g; Iffa Credo, Lyon, France) are used. The animals are randomized to the following treatment groups (n=10 per group): the compound (dosed 0, 3 or 10 mg/kg) followed by phencyclidine (PCP; an NMDA channel blocker, dosed 0 or 10 mg/kg). Compound (at t=−15 min) and PCP (at t=0 min) are administered s.c. in a volume of 1 ml/kg. Video-recordings of the animals behaviour over the period 0-30 min following PCP are scored by an observer who is unaware about the animals pretreatment. Head-swaying (rocking the head repeatedly by at least 2 cm left and right) and circling (turning around by using the forepaws, whereas the hindpaws remain more or less on the original position) are scored as present (1) or absent (0), every five minutes for the duruation of 1 minute. The scores for individual animals is summed and group scores used for statistical analysis (t-test with Bonferroni correction).

Experiment [3] concerns patients with diabetic neuropathy. In words: Clinical study, chronic pain in patients with diabetic neuropathy. It counts as in vivo, human. The following applies: 2400 mg/day, Maintenance and Follow-up Periods, statistically significant. On the procedure: Patients are randomized to receive 2400 mg/day of the compound or placebo in a 1:1 ratio.
The study consists of a Pre-randomization Phase (1 week) and a Double-blind Phase (5 weeks). The double-blind Phase consists of three periods: a one week Titration Period, a three-week Maintenance Period and a one-week Follow-up Period.
During the 1-week Pre-randomization Phase, the eligibility of the patients is evaluated. Patients meeting all inclusion/exclusion criteria are randomized to either the compound or placebo in the Double-blind Phase. During the 1-week Titration Period, study medication is up-titrated from 800 mg/day (given b.i.d.) to 2400 mg/day (given b.i.d.). Patients who complete the 1-week Titration Period then enter the 3-week Maintenance Period. Patients who complete the 3-week Maintenance period or prematurely discontinue double-blind treatment then enter the 1-week Follow-up Period. Study medication is completely withdrawn on entry into the Follow-up Period. During the Double-blind Phase, serial efficacy and safety assessments are obtained. […]
The SF-MPQ total pain score at the end of the Maintenance Period is analyzed using an analysis of covariance model adjusting for the effect of treatment on post-treatment scores by using the baseline SF-MPQ total pain score as a covariate. Average weekly pain severity is analyzed using an analysis of covariance model with repeated measures using the treatment week and the mean pain severity rating during the Pre-randomization Phase as covariates. Usage of rescue medication during the Double-blind Phase is analyzed using the Cochran-Mantel-Haenszel test controlling for center. The mean pain severity rating during the Follow-up Period (rebound pain) is analyzed using an analysis of covariance model adjusting for the effect of treatment on the mean pain severity rating of the Follow-up Period with the mean pain severity rating during the Prerandomization Phase as a covariate.

The target of experiment [4] is T1, rat GluR3-(flop) AMPA receptor (Rattus norvegicus, UniProt P19492).
T1 construct: expressed in transfected cells; host or cells: Xenopus laevis oocytes (cRNA injection)
The experiment can be described thus: Functional test for AMPA-receptor activity, two electrode voltage clamp in Xenopus laevis oocytes. It counts as cell-based. The following applies: Xenopus oocytes expressing rGluR3-(flop); read-out: IC50-value, antagonist at the rGluR3 AMPA receptor. On the procedure:
For the determination of functional agonism or antagonism at the AMPA-receptor, experiments can be performed on Xenopus oocytes as previously described in detail (Urwyler et al., Mol. Pharmacol. 2001, 60, 963-971). Briefly, two electrode voltage clamp recordings are performed from Xenopus laevis oocytes expressing GluR3 AMPA receptors. Plasmids for the rat GluR3-(flop) (Hollmann et al., Science 1991, 252, 851-853) are linearized and transcribed into capped cRNA using an in vitro RNA synthesis kit (Ambion, Tex.) with T7 Polymerase. Stock solutions are kept in 70% ethanol. Before use, cRNA is precipitated and resuspended in DEPC-treated water. Oocytes are injected with RNA coding the rat GluR3-(flop) AMPA receptor. For recordings, oocytes are placed in a perfusion chamber with continuous gravity flow of frog Ringer's solution. For recordings from oocytes expressing rGluR3-(flop) receptors frog, Ringer's solution containing Mg^2+ (81 mM NaCl; 2.5 mM KCl; 1 mM CaCl2; 1 mM MgCl2, 2.5 mM NaHCO3, 5 mM HEPES, pH 7.4) is used. Test compounds are washed in with gravity.

In another experiment the target is AMPA receptor. In words: [3H] CNQX binding test (AMPA-receptor binding), brain membranes. The following applies: 5 nM [3H]-CNQX, 4° C., 40 min. On the procedure:
CNQX binding test (Honoré et al. Biochem. Pharmacol. 1989, 38: 3207-3212). This test is performed as follows:
Brain membranes: The animals are decapitated, the brain removed and homogenized in 10 volumes of ice-cold 10% sucrose with a glass/Teflon homogenizer at positions 5 for 30 sec. The membranes are centrifuged at 1000×g for 10 min, and the supernatant centrifuged at 20,000×g for 15 min. The resulting pellet is resuspended in 10 volumes of cold water with a tissue homogenizer (Brinkman Polytron) at position 5 for 15 sec and the suspension centrifuged at 8000×g for 10 min. The supernatant including the buffy layer is centrifuged at 40,000×g for 20 min, the pellet resuspended in 5 volumes of water and the suspension frozen (20-30 min in dry ice/methanol) and thawed (water-bath at 37° C.) twice. The suspension is centrifuged at 40,000×g for 20 min, the pellet resuspended in 50 mM HEPES/KOH, pH 7.5, and centrifuged at 40,000×g for 10 min. […]
Radioligand binding assay: It is performed using 96-well microtiterplates in a volume of 0.3 ml of 50 mM HEPES/KOH, pH 7.2, 100 μg membrane protein, 5 nM [^3H]-CNQX (NEN) and the compound to be tested. […] Two hundred μl of the scintillation fluid Microscint 20 (Packard) are added and the radioactivity is counted in a Packard Topcount scintillation counter at an efficiency of 40-45%. […]

T1 sequence (P19492 23-888): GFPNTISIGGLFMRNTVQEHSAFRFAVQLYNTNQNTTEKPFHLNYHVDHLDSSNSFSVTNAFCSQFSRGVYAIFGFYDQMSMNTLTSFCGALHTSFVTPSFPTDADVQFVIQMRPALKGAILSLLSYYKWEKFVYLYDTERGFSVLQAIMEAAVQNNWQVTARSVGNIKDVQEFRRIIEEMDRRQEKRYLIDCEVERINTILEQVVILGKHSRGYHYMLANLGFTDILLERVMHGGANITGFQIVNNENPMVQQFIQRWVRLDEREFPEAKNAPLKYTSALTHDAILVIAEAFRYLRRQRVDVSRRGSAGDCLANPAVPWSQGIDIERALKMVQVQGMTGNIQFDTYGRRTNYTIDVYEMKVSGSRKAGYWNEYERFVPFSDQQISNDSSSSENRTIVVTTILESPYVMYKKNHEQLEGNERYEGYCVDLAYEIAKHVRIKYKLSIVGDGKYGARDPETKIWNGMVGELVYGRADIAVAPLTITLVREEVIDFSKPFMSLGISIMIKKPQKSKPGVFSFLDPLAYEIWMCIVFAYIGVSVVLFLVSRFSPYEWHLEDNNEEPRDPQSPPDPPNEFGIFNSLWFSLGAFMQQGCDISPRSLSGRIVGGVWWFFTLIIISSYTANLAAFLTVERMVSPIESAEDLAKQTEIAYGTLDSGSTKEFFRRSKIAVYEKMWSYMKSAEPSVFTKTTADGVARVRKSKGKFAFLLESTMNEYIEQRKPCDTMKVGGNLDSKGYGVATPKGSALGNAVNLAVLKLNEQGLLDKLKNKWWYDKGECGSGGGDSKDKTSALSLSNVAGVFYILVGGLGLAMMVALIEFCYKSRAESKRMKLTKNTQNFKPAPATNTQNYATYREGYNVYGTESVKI

As for `N[C@@H](Cc1cc(CP(=O)(O)O)cc(-c2ccccc2Cl)c1)C(=O)O` [SDZ 220-581, (S)-2-amino-3-(2′-chloro-5-phosphonomethyl-biphenyl-3-yl)-propionic acid], the “distance walked during 30 min” value in the experiment on Wistar Kyoto rats [1] was “approximately 30 m”. For the compound `c1ccc(C2(N3CCCCC3)CCCCC2)cc1` [PCP, phencyclidine], the head-swaying and circling result in the experiment on Wistar Kyoto rats [2] is “induces weak head-swaying and circling”. Consider `CS(=O)(=O)Nn1c(=O)[nH]c2cc(C(F)(F)F)c(N3CCOCC3)cc2c1=O` [Example 68, N-(6-Morpholin-4-yl-2,4-dioxo-7-trifluoromethyl-1,4-dihydro-2H-quinazolin-3-yl) -methanesulfonamide], for which, in experiment [3], the “pain severity ratings relative to placebo” value is “decrease pain severity ratings relative to placebo”. `CS(=O)(=O)Nn1c(=O)[nH]c2cc(C(F)(F)F)c(N3CCCOCC3)cc2c1=O` [Example 75, N-(6-[1,4]Oxazepan-4-yl-2,4-dioxo-7-trifluoromethyl-1,4-dihydro-2H-quinazolin-3-yl)-methanesulfonamide]: the “pain severity ratings relative to placebo” value in experiment [3] was “decrease pain severity ratings relative to placebo”.

Take `CN(C)c1cc2c(=O)n(NS(C)(=O)=O)c(=O)[nH]c2cc1[N+](=O)[O-]` [Example 4, N-(6-Dimethylamino-7-nitro-2,4-dioxo-1,4-dihydro-2H-quinazolin-3-yl)-methanesulfonamide]: the figures for the IC50 (in experiment [4]; at AMPA receptor) were 2.3 µM and 0.29 µM, respectively.
